Measurements taken from patent US20250288652A1, “BACTERIOPHAGE LYSINE, CHIMERA THEREOF AND APPLICATION THEREOF” (priority 2021, published 2025).
“And” between values parts separate entries of the source, which are not always exact repeats. Equal entries are not always repeated.

What was measured:
Type in all cases: cell-based
Propionibacterium acnes [1] = assay: MIC of selected lysin after single-step purification, Example 8; conditions: single-step purified lysin
Procedure: Express PACL 10, 390, 391, 392, 403 and 404 according to the method of Examples 1-4, and perform the following single-step purification: put Escherichia coli BL21 (DE3) containing each recombinant expression plasmid in the self-induction medium incubate at 37° C., 300 rpm for 3 hours, then at 18° C., 300 rpm for 16-18 hours. Cells were collected by centrifugation and lysed by homogenizatoin under high pressure. Clarified lysate from 1 L of E. coli culture medium expressing the protein of interest was loaded onto a 26 mm/200 mm column containing 70 mL of purification resin. The lysin was purified according to the conditions in Table 8-1, and the purity determination of the lyase after single-step purification is shown in FIG. 5. These lysin are used to determine the minimal inhibitory concentration (MIC).
The minimal inhibitory concentration (MIC) determination method is as follows. Propionibacterium acnes is streaked on Fortified Clostridium Agar (Fortified Clostridium Medium RCM with 1.5% agar, RCM was prepared according to the revised recipe, per liter—10 g acid hydrolyzed casein, 10 g beef extract, 3 g yeast extract, 5 g D—glucose, 5 g sodium chloride, 3 g sodium acetate, 0.5 g L-cysteine hydrochloride). Plates were incubated anaerobically at 37° C. for 72 hours. The inoculum for MIC determination was first prepared by resuspending single clones from RCA in 0.9% saline to an OD600 of 0.05, corresponding to 10^7 colony-forming units per milliliter (cfu/mL). The suspension was diluted 20-fold in RCM to an inoculum of 5*10^5 cfu/mL. Two-fold serial dilutions of each lyase were prepared in 0.9% saline and added not to exceed one-tenth of the total culture volume. Cultures were grown anaerobically at 37° C. for 48-72 hours. The MIC is the lowest concentration of lyase at which no growth of P. acnes can be observed with the naked eye.

Propionibacterium acnes [2] = assay: Minimum inhibitory concentration (MIC) determination, Example 6; conditions: Cutibacterium acnes
Procedure: (§1) The minimal inhibitory concentration (MIC) determination method is as follows. First prepare a colony suspension in 0.9% saline to an OD600 of 0.05 to prepare an inoculum, which corresponds to 10^7 colony-forming units per mL (cfu/mL). The suspension was diluted 20 times in agar-free enhanced Clostridium medium (RCM) to an inoculum of 5*10^5 cfu/mL. Prepare 2-fold serial dilutions of PACL10 or vancomycin with 0.9% saline and add no more than one-tenth of the total culture. Cultures were grown anaerobically at 37° C. for 3 days. The MIC is the lowest concentration of PACL10 or vancomycin at which no growth of P. acnes can be observed with the naked eye. The minimum bactericidal concentration (MBC) was determined by subculturing the above cultures on enhanced Clostridium agar (RCA) plates containing 0.1% Tween-80. MBC is the lowest concentration of PACL10 or vancomycin at which no P. acnes colonies are seen on the enhanced Clostridium agar (RCA) plate.

Propionibacterium acnes [3] = assay: Minimum bactericidal concentration (MBC) determination, Example 6; conditions: Cutibacterium acnes
Procedure: as §1

## CN(C)[C@@H]1C(O)=C(C(N)=O)C(=O)[C@@]2(O)C(O)=C3C(=O)c4c(O)cccc4[C@@](C)(O)[C@H]3C[C@@H]12 [Tetracycline, reference compound]
Propionibacterium acnes [1]; Cutibacterium acnes, clade IA2, strain 33, read-out: MIC of selected lyases relative to Propionibacterium acnes
  MIC: 8 µg/mL
Propionibacterium acnes [1]; clade IA1, strain 1
  MIC of selected lyases relative to Propionibacterium acnes: 8 µg/mL
Propionibacterium acnes [1]; clade IA1, strain 5
  MIC of selected lyases relative to Propionibacterium acnes: 8 µg/mL
Propionibacterium acnes [1]; clade IA1, strain 7
  MIC of selected lyases relative to Propionibacterium acnes: 8 µg/mL
Propionibacterium acnes [1]; clade IA2, strain 10
  MIC of selected lyases relative to Propionibacterium acnes: 8 µg/mL
Propionibacterium acnes [1]; clade IA2, strain 17
  MIC of selected lyases relative to Propionibacterium acnes: 8 µg/mL
Propionibacterium acnes [1]; clade II, strain 34
  MIC of selected lyases relative to Propionibacterium acnes: 8 µg/mL

## CN[C@H](CC(C)C)C(=O)N[C@H]1C(=O)N[C@@H](CC(N)=O)C(=O)N[C@H]2C(=O)N[C@H]3C(=O)N[C@H](C(=O)N[C@H](C(=O)O)c4cc(O)cc(O)c4-c4cc3ccc4O)[C@H](O)c3ccc(c(Cl)c3)Oc3cc2cc(c3O[C@@H]2O[C@H](CO)[C@@H](O)[C@H](O)[C@H]2O[C@H]2C[C@](C)(N)[C@H](O)[C@H](C)O2)Oc2ccc(cc2Cl)[C@H]1O [Vancomycin, reference compound]
Propionibacterium acnes [2]; clade IA1, strain 1
  MIC: 0.5 µg/mL and 0.337 µM
Propionibacterium acnes [2]; clade IA1, strain 5
  MIC: 1 µg/mL and 0.673 µM
Propionibacterium acnes [2]; clade IA1, strain 7
  MIC: 0.5 µg/mL and 0.337 µM
Propionibacterium acnes [2]; clade IA1, strain 15
  MIC: 1 µg/mL and 0.673 µM
Propionibacterium acnes [2]; clade IA1, strain 27
  MIC: 1 µg/mL and 0.673 µM
Propionibacterium acnes [2]; clade IA2, strain 10
  MIC: 0.5 µg/mL and 0.337 µM
Propionibacterium acnes [2]; clade IA2, strain 14
  MIC: 0.5 µg/mL and 0.337 µM
Propionibacterium acnes [2]; clade IA2, strain 17
  MIC: 0.5 µg/mL and 0.337 µM
Propionibacterium acnes [2]; clade IA2, strain 31
  MIC: 0.5 µg/mL and 0.337 µM
Propionibacterium acnes [2]; clade IA2, strain 33A
  MIC: 0.5 µg/mL and 0.337 µM
Propionibacterium acnes [2]; clade IB, strain 13
  MIC: 1 µg/mL and 0.673 µM
Propionibacterium acnes [2]; clade II, strain 34A
  MIC: 0.5 µg/mL and 0.337 µM
Propionibacterium acnes [3]; clade IA1, strain 1
  MBC: 0.5 µg/mL and 0.337 µM
Propionibacterium acnes [3]; clade IA1, strain 5
  MBC: 1 µg/mL and 0.673 µM
Propionibacterium acnes [3]; clade IA1, strain 7
  MBC: 1 µg/mL and 0.673 µM
Propionibacterium acnes [3]; clade IA1, strain 15
  MBC: 1 µg/mL and 0.673 µM
Propionibacterium acnes [3]; clade IA1, strain 27
  MBC: 1 µg/mL and 0.673 µM
Propionibacterium acnes [3]; clade IA2, strain 10
  MBC: 1 µg/mL and 0.673 µM
Propionibacterium acnes [3]; clade IA2, strain 14
  MBC: 1 µg/mL and 0.673 µM
Propionibacterium acnes [3]; clade IA2, strain 17
  MBC: 0.5 µg/mL and 0.337 µM
Propionibacterium acnes [3]; clade IA2, strain 31
  MBC: 0.5 µg/mL and 0.337 µM
Propionibacterium acnes [3]; clade IA2, strain 33A
  MBC: 1 µg/mL and 0.673 µM
Propionibacterium acnes [3]; clade IB, strain 13
  MBC: 1 µg/mL and 0.673 µM
Propionibacterium acnes [3]; clade II, strain 34A
  MBC: 0.5 µg/mL and 0.337 µM

B1: PACL390: chimeric lysin, amino acid sequence SEQ ID NO: 258 (protein)
chain: MTFIQAAHHSSGSNLPPTRVVIHATCPEMGFPKASAKGRAVSTARYFQSASSGGSAHYVVDIGETVQCLGENVIAWHAPPNAHSLGIEICADGGSATSFSNPKVRYTRAQWLSPQVWPAVLRAAALTRKMCSKYGIPVVKLSASDLKAGKKGICGHVDVSNAFHQSDHDDPGPDFPWAEFMAAVKGGPGQQDTKPSVPTPSLTEIGDQDMNGCYYNLNSKTRTYLIFDSRSGFYHEFSQGNGNGPMSPDYVNPIAKGWDTGSWPAISPGHAKVLKAALDKVRKGI
modifications: PACL390
Propionibacterium acnes [1]; clade IA1, strain 1
  MIC of selected lyases relative to Propionibacterium acnes: 8 µg/mL
Propionibacterium acnes [1]; clade IA1, strain 5
  MIC of selected lyases relative to Propionibacterium acnes: 8 µg/mL
Propionibacterium acnes [1]; clade IA1, strain 7
  MIC of selected lyases relative to Propionibacterium acnes: 8 µg/mL
Propionibacterium acnes [1]; clade IA2, strain 10
  MIC of selected lyases relative to Propionibacterium acnes: 8 µg/mL
Propionibacterium acnes [1]; clade IA2, strain 17
  MIC of selected lyases relative to Propionibacterium acnes: 8 µg/mL
Propionibacterium acnes [1]; clade IA2, strain 33
  MIC of selected lyases relative to Propionibacterium acnes: 8 µg/mL
Propionibacterium acnes [1]; clade II, strain 34
  MIC of selected lyases relative to Propionibacterium acnes: 8 µg/mL

B2: PACL392: chimeric lysin, amino acid sequence SEQ ID NO: 260 (protein)
chain: MTFIQAAHHSSGSNLPPTRVVIHATCPELGFPRASAKGRAVSTARYFQSAISGGSAHYVVDVGETVQCLAEDVIAWHAPPNSRSLGIEICADGGSATSFKNPNVRYSRAQWLSPQVWPAVLRAAALTRQMCQKYGIPVTKLSASDLKAGKKGICGHVDVSNAWHQSDHDDPGPDFPWAEFMAAVKGGATNPGGPGQQDTKPSVPTPSLTEIGDQDMNGCYYNLNSKTRTYLIFDSRSGFYHEFSQGNGNGPMSPDYVNPIAKGWDTGSWPAISPGHAKVLKAALDKVRKGI
modifications: PACL392
Propionibacterium acnes [1]; clade IA1, strain 1
  MIC of selected lyases relative to Propionibacterium acnes: 8 µg/mL
Propionibacterium acnes [1]; clade IA1, strain 5
  MIC of selected lyases relative to Propionibacterium acnes: 8 µg/mL
Propionibacterium acnes [1]; clade IA1, strain 7
  MIC of selected lyases relative to Propionibacterium acnes: 8 µg/mL
Propionibacterium acnes [1]; clade IA2, strain 10
  MIC of selected lyases relative to Propionibacterium acnes: 16 µg/mL
Propionibacterium acnes [1]; clade IA2, strain 17
  MIC of selected lyases relative to Propionibacterium acnes: 16 µg/mL
Propionibacterium acnes [1]; clade IA2, strain 33
  MIC of selected lyases relative to Propionibacterium acnes: 8 µg/mL
Propionibacterium acnes [1]; clade II, strain 34
  MIC of selected lyases relative to Propionibacterium acnes: 8 µg/mL

B3: PACL391: chimeric lysin, amino acid sequence SEQ ID NO: 259 (protein)
chain: MTFIQAAHHSSGSNLPPTRVVIHATCPELGFPRASAKGRAVSTARYFQSAISGGSAHYVVDVGETVQCLAEDVIAWHAPPNSRSLGIEICADGGSATSFKNPNVRYSRAQWLSPQVWPAVLRAAALTRQMCQKYGIPVTKLSASDLKAGKKGICGHVDVSNAWHQSDHDDPGPDFPWAEFMAAVKGGATNPGGEVRTPGQQDTKPSVPTPSLTEIGDQDMNGCYYNLNSKTRTYLIFDSRSGFYHEFSQGNGNGPMSPDYVNPIAKGWDTGSWPAISPGHAKVLKAALDKVRKGI
modifications: PACL391
Propionibacterium acnes [1]; clade IA1, strain 1
  MIC of selected lyases relative to Propionibacterium acnes: 8 µg/mL
Propionibacterium acnes [1]; clade IA1, strain 5
  MIC of selected lyases relative to Propionibacterium acnes: 16 µg/mL
Propionibacterium acnes [1]; clade IA1, strain 7
  MIC of selected lyases relative to Propionibacterium acnes: 8 µg/mL
Propionibacterium acnes [1]; clade IA2, strain 10
  MIC of selected lyases relative to Propionibacterium acnes: 32 µg/mL
Propionibacterium acnes [1]; clade IA2, strain 17
  MIC of selected lyases relative to Propionibacterium acnes: 32 µg/mL
Propionibacterium acnes [1]; clade IA2, strain 33
  MIC of selected lyases relative to Propionibacterium acnes: 16 µg/mL
Propionibacterium acnes [1]; clade II, strain 34
  MIC of selected lyases relative to Propionibacterium acnes: 8 µg/mL

B4: PACL404: chimeric lysin, amino acid sequence SEQ ID NO: 272 (protein)
chain: MTFIQAAHHSSGSNLPPTRVVIHATCPEMGFPKASAKGRAVSTARYFQSASSGGSAHYVVDIGETVQCLGENVIAWHAPPNAHSLGIEICADGGSATSFSNPKVRYTRAQWLSPQVWPAVLRAAALTRKMCSKYGIPVVKLSASDLKAGKKGICGHVDVSNAFHQSDHDDPGPDFPWAEFMAAVKGGTTTQEDEDEMKEAGGPGQQDTKPSVPTPSLTEIGDQDMNGCYYNLNSKTRTYLIFDSRSGFYHEFSQGNGNGPMSPDYVNPIAKGWDTGSWPAISPGHAKVLKAALDKVRKGI
modifications: PACL404
Propionibacterium acnes [1]; clade IA1, strain 1
  MIC of selected lyases relative to Propionibacterium acnes: 8 µg/mL
Propionibacterium acnes [1]; clade IA1, strain 5
  MIC of selected lyases relative to Propionibacterium acnes: 16 µg/mL
Propionibacterium acnes [1]; clade IA1, strain 7
  MIC of selected lyases relative to Propionibacterium acnes: 16 µg/mL
Propionibacterium acnes [1]; clade IA2, strain 10
  MIC of selected lyases relative to Propionibacterium acnes: 16 µg/mL
Propionibacterium acnes [1]; clade IA2, strain 17
  MIC of selected lyases relative to Propionibacterium acnes: 8 µg/mL
Propionibacterium acnes [1]; clade IA2, strain 33
  MIC of selected lyases relative to Propionibacterium acnes: 8 µg/mL
Propionibacterium acnes [1]; clade II, strain 34
  MIC of selected lyases relative to Propionibacterium acnes: 8 µg/mL
